Results reported in patent US9161990B2, “Hydrochloride salts of a glycopeptide-cephalosporin antbiotic compond” (THERAVANCE BIOPHARMA ANTIBIOTICS IP, LLC, priority 2013, dated 2015).
Where a name gives a salt, the structure may show the parent alone. Blank lines part the entries; values can stand above or below the compound they belong to.

Experiments:
[1] = Storage stability of lyophilized hydrochloride salts (purity by HPLC); type: physicochemical; details: for storage stability compared to the trihydrochloride salt: stored for 12 months at either room temperature or 2 to 8° C.
Method: (§1) All solvents were HPLC grade and were purchased from Honeywell Burdick & Jackson (Muskegon, Mich. 49442). Phosphoric acid (85% w/w) and sodium dihydrogen phosphate were HPLC grade and were purchased from Fluka (Sigma-Aldrich, St. Louis, Mo. 63103). All reagents were used without further purification.
(§2) Test samples were filtered through a 0.2 μm polyvinylidene fluoride (PVDF) filter before analysis and the first 1 mL was discarded.
(§3) Test sample purity was determined based on the integrated peak area (area-under-the-curve or AUC) for the compound as a percentage of all integrated peaks. The concentration (assay value) of the compound in a test sample was determined by comparison with a reference standard.
(§4) One rack was stored protected from light in a drawer at room temperature and the other rack was stored in a refrigerator at 2 to 8° C. A representative vial of each type of stability sample was analyzed by HPLC after storage for 1, 3, 6 and 12 months to determine purity.

[2] = Storage stability of hydrochloride salts in a lyophilized composition containing sucrose and glycine (purity by HPLC); type: physicochemical; details: for Δ (change in percent purity from time = 0) / Purity (HPLC area percent): composition containing sucrose and glycine; for decrease in purity: formulated with sucrose and glycine; for storage stability when formulated with sucrose and glycine: compared to the salt alone
Method: as §1, §2, §3, §4

[3] = refrigerated temperature (2 to 8° C.), 1 month, dihydrochloride
[4] = refrigerated temperature (2 to 8° C.), 3 months, dihydrochloride
[5] = refrigerated temperature (2 to 8° C.), 6 months, dihydrochloride
[6] = refrigerated temperature (2 to 8° C.), 12 months, dihydrochloride
[7] = room temperature, 1 month, dihydrochloride
[8] = room temperature, 1 month, listed as Di HCl, dihydrochloride
[9] = room temperature, 3 months, dihydrochloride
[10] = room temperature, 3 months, listed as Di HCl, dihydrochloride
[11] = room temperature, 6 months, dihydrochloride
[12] = room temperature, 6 months, listed as Di HCl, dihydrochloride
[13] = room temperature, 12 months, dihydrochloride
[14] = room temperature, 12 months, listed as Di HCl, dihydrochloride
[15] = stored at 2 to 8° C. for 12 months, listed as dihydrochloride salt, dihydrochloride
[16] = stored at room temperature for 12 months, listed as dihydrochloride salt, dihydrochloride
[17] = stored at room temperature for 12 months
[18] = refrigerated temperature (2 to 8° C.), 1 month, monohydrochloride
[19] = refrigerated temperature (2 to 8° C.), 3 months, monohydrochloride
[20] = refrigerated temperature (2 to 8° C.), 6 months, monohydrochloride
[21] = refrigerated temperature (2 to 8° C.), 12 months, monohydrochloride
[22] = room temperature, 1 month, listed as Mono HCl, monohydrochloride
[23] = room temperature, 1 month, monohydrochloride
[24] = room temperature, 3 months, listed as Mono HCl, monohydrochloride
[25] = room temperature, 3 months, monohydrochloride
[26] = room temperature, 6 months, listed as Mono HCl, monohydrochloride
[27] = room temperature, 6 months, monohydrochloride
[28] = room temperature, 12 months, listed as Mono HCl, monohydrochloride
[29] = room temperature, 12 months, monohydrochloride
[30] = stored at 2 to 8° C. for 12 months, listed as monohydrochloride salt, monohydrochloride
[31] = stored at room temperature for 12 months, listed as monohydrochloride salt, monohydrochloride

Purity (HPLC area percent) [1, 3]: 89.9%
Δ (change in percent purity from time = 0) [1, 3]: −0.2%
Purity (HPLC area percent) [1, 4]: 89.4%
Δ (change in percent purity from time = 0) [1, 4]: −0.7%
Δ (change in percent purity from time = 0) [1, 5]: 0.7%
Purity (HPLC area percent) [1, 6]: 87.2%
Δ (change in percent purity from time = 0) [1, 6]: −2.9%
Purity (HPLC area percent) ([1]; refrigerated temperature (2 to 8° C.), time 0 months, dihydrochloride): 90.1%
Purity (HPLC area percent) [1, 7]: 85.3%
Δ (change in percent purity from time = 0) [1, 7]: −4.8%
Purity (HPLC area percent) [1, 8]: 85.3%
Δ (change in percent purity from time = 0) [1, 8]: −4.8%
Purity (HPLC area percent) [1, 9]: 82.5%
Δ (change in percent purity from time = 0) [1, 9]: −7.6%
Purity (HPLC area percent) [1, 10]: 82.5%
Δ (change in percent purity from time = 0) [1, 10]: −7.6%
Purity (HPLC area percent) [1, 11]: 81.4%
Δ (change in percent purity from time = 0) [1, 11]: −8.7%
Purity (HPLC area percent) [1, 12]: 81.4%
Δ (change in percent purity from time = 0) [1, 12]: −8.7%
Purity (HPLC area percent) [1, 13]: 69.6%
Δ (change in percent purity from time = 0) [1, 13]: −20.5%
Purity (HPLC area percent) [1, 14]: 69.6%
Δ (change in percent purity from time = 0) [1, 14]: −20.5%
Purity (HPLC area percent) ([1]; room temperature, time 0 months, dihydrochloride): 90.1%
Purity (HPLC area percent) ([1]; room temperature, time 0 months, listed as Di HCl, dihydrochloride): 90.1%
decrease in purity [1, 15]: 2.9%
decrease in purity [1, 16]: 20.5%
Δ (change in percent purity from time = 0) [2, 3]: −0.3%
Purity (HPLC area percent) [2, 4]: 89.4%
Δ (change in percent purity from time = 0) [2, 4]: −0.7%
Δ (change in percent purity from time = 0) [2, 5]: 0.7%
Purity (HPLC area percent) [2, 6]: 87.2%
Δ (change in percent purity from time = 0) [2, 6]: −2.9%
Δ (change in percent purity from time = 0) [2, 7]: −0.8%
Δ (change in percent purity from time = 0) [2, 9]: −2.9%
Δ (change in percent purity from time = 0) [2, 11]: 0.2%
Δ (change in percent purity from time = 0) [2, 13]: −6.8%
decrease in purity [2, 15]: 2.9%
decrease in purity [2, 16]: 6.8%
storage stability when formulated with sucrose and glycine [2, 17]: more stable
Compound: CN[C@H](CC(C)C)C(=O)NC1C(=O)N[C@@H](CC(N)=O)C(=O)N[C@H]2C(=O)N[C@H]3C(=O)N[C@H](C(=O)N[C@H](C(=O)NCCCO/N=C(\C(=O)N[C@@H]4C(=O)N5C(C(=O)[O-])=C(C[n+]6ccccc6)CS[C@H]45)c4nc(N)sc4Cl)c4cc(O)cc(O)c4-c4cc3ccc4O)[C@H](O)c3ccc(c(Cl)c3)Oc3cc2cc(c3O[C@@H]2O[C@H](CO)[C@@H](O)[C@H](O)[C@H]2O[C@H]2C[C@](C)(N)[C@H](O)[C@H](C)O2)Oc2ccc(cc2Cl)[C@H]1O (stereo partly drawn) [Dihydrochloride, 26-[[[3-[[(Z)-[1-(2-amino-5-chloro-4-thiazolyl)-2-[[(6R,7R)-2-carboxy-8-oxo-3-(pyridiniomethyl)-5-thia-1-azabicyclo[4.2.0]oct-2-en-7-yl]amino]-2-oxoethylidene]amino]oxy]propyl]amino]carbonyl]-26-decarboxyvancomycin dihydrochloride]
storage stability compared to the trihydrochloride salt [1]: significantly more stable than the trihydrochloride salt

Purity (HPLC area percent) [1, 18]: 90.0%
Δ (change in percent purity from time = 0) [1, 18]: −0.4%
Purity (HPLC area percent) [1, 19]: 90.2%
Δ (change in percent purity from time = 0) [1, 19]: −0.2%
Δ (change in percent purity from time = 0) [1, 20]: 0.0%
Purity (HPLC area percent) [1, 21]: 87.4%
Δ (change in percent purity from time = 0) [1, 21]: −3.0%
Purity (HPLC area percent) [1, 22]: 89.3%
Δ (change in percent purity from time = 0) [1, 22]: −1.1%
Purity (HPLC area percent) [1, 23]: 89.3%
Δ (change in percent purity from time = 0) [1, 23]: −1.1%
Purity (HPLC area percent) [1, 24]: 82.0%
Δ (change in percent purity from time = 0) [1, 24]: −8.4%
Purity (HPLC area percent) [1, 25]: 82.0%
Δ (change in percent purity from time = 0) [1, 25]: −8.4%
Purity (HPLC area percent) [1, 26]: 79.9%
Δ (change in percent purity from time = 0) [1, 26]: −10.5%
Purity (HPLC area percent) [1, 27]: 79.9%
Δ (change in percent purity from time = 0) [1, 27]: −10.5%
Purity (HPLC area percent) [1, 28]: 67.0%
Δ (change in percent purity from time = 0) [1, 28]: −23.4%
Purity (HPLC area percent) [1, 29]: 67.0%
Δ (change in percent purity from time = 0) [1, 29]: −23.4%
decrease in purity [1, 30]: 3.0%
decrease in purity [1, 31]: 23.4%
Purity (HPLC area percent) [2, 18]: 90.7%
Δ (change in percent purity from time = 0) [2, 18]: 0.3%
Purity (HPLC area percent) [2, 19]: 88.9%
Δ (change in percent purity from time = 0) [2, 19]: −1.5%
Purity (HPLC area percent) [2, 20]: 91.7%
Δ (change in percent purity from time = 0) [2, 20]: 1.3%
Purity (HPLC area percent) [2, 21]: 88.5%
Δ (change in percent purity from time = 0) [2, 21]: −1.9%
Purity (HPLC area percent) [2, 23]: 89.0%
Δ (change in percent purity from time = 0) [2, 23]: −1.4%
Δ (change in percent purity from time = 0) [2, 25]: −3.5%
Δ (change in percent purity from time = 0) [2, 27]: −2.5%
Δ (change in percent purity from time = 0) [2, 29]: −8.9%
decrease in purity [2, 30]: 1.9%
decrease in purity [2, 31]: 8.9%
storage stability when formulated with sucrose and glycine [2, 17]: more stable
Compound: CN[C@H](CC(C)C)C(=O)N[C@H]1C(=O)N[C@@H](CC(N)=O)C(=O)N[C@H]2C(=O)N[C@H]3C(=O)N[C@H](C(=O)N[C@H](C(=O)NCCCO/N=C(\C(=O)N[C@@H]4C(=O)N5C(C(=O)[O-])=C(C[n+]6ccccc6)CS[C@H]45)c4nc(N)sc4Cl)c4cc(O)cc(O)c4-c4cc3ccc4O)[C@H](O)c3ccc(c(Cl)c3)Oc3cc2cc(c3O[C@@H]2O[C@H](CO)[C@@H](O)[C@H](O)[C@H]2O[C@H]2C[C@](C)(N)[C@H](O)[C@H](C)O2)Oc2ccc(cc2Cl)[C@H]1O [Monohydrochloride, 26-[[[3-[[(Z)-[1-(2-amino-5-chloro-4-thiazolyl)-2-[[(6R,7R)-2-carboxy-8-oxo-3-(pyridiniomethyl)-5-thia-1-azabicyclo[4.2.0]oct-2-en-7-yl]amino]-2-oxoethylidene]amino]oxy]propyl]amino]carbonyl]-26-decarboxyvancomycin monohydrochloride]
storage stability compared to the trihydrochloride salt [1]: significantly more stable than the trihydrochloride salt
